Experimental data published in PMC7497403, “Development of Potent PfCLK3 Inhibitors Based on TCMDC-135051 as a New Class of Antimalarials” (Journal of Medicinal Chemistry, 2020).

Experiments:
Microsomal stability = type: in vitro ADME; conditions: mouse liver microsomes; 1 μM compound
Procedure: Compounds were incubated at 37 °C at a concentration of 1 μM with CD1 mouse liver microsomes (GIBCO, Thermo Fisher Scientific) in a suspension of 50 mM potassium phosphate buffer (pH 7.4) with a final protein concentration of 0.5 mg/mL. The reaction was started by the addition of excess NADPH and then quenched at several time points starting from time 0, then at 3, 6, 9, 15, and 30 min addition of acetonitrile to an aliquot of the sample. An internal standard was added to each sample before centrifugation to remove any precipitates before monitoring loss of parent compound by HPLC analysis using Shimadzu LC-20A (Shimadzu, UK). Prism (Graphpad, USA) was used to fit an exponential decay for substrate depletion and subsequently rate constant (k) from the peak area of the parent compound to the internal standard at each time point.

[1] = tested on: P. falciparum clinical field isolates from The Gambia; experiment: Parasite reduction rate (PRR) assay with clinical isolates; type: cell-based

Structure (SMILES): CCN(CC)Cc1ccc(OC)c(-c2cc3c(-c4ccc(C(=O)O)c(C(C)C)c4)ccnc3[nH]2)c1 [analogue 1, 4-(2-(5-((Diethylamino)methyl)-2-methoxyphenyl)-1H-pyrrolo[2,3-b]pyridin-4-yl)-2-isopropylbenzoic Acid]
- clint (in vitro intrinsic clearance) (Microsomal stability): 1.12 mL/min/g liver
- susceptibility of clinical isolates (PRR) [1]: total susceptibility
